{"source": "patent EP0197829A1", "about": "“5H-pyrido[3',4':4,5]pyrrolo[3,2-c]pyridine derivatives, process for their preparation and their antitunour activity” (SANOFI, priority 1985, dated 1986)", "key": {"réticulosarcome M5-M5076": {"test_system": "réticulosarcome M5-M5076", "assay": "M5-M5076 reticulosarcoma test in vivo", "parameters": "species or system souris hybrides BDF1", "details": "for Survivants: at day J 75", "excerpt": "(§1) L'activité antitumorale a été testée in vivo sur différentes tumeurs selon le protocole général suivant : Toutes les souris mâles ou femelles sont inoculées par voie intrapéritonéale au jour Jo avec une quantité déterminée de cellules tumorales viables, variable selon la tumeur.\n(§2) Elles sont ensuite réparties en différents lots. Chaque lot correspondant aux animaux traités par le produit à tester à une dose déterminée est composé de lO souris. Dans ce cas, le produit à tester est dissous dans l'eau distillée et il est administré, pendant n jours (J1-Jn) variables selon le protocole choisi, par voie intrapéritonéale à raison de 0,1 ml par lO g de poids des souris traitées, les doses du produit administré étant précisées dans les tableaux ci-dessous.\n(§3) Le lot \"Contrôle négatif\", correspondant aux animaux qui ne sont pas traités par un produit, comprend 2 √N animaux, N étant égal au nombre total de souris traitées par un produit.\n(§4) Enfin, tous lés essais sont conduits parallèlement à l'étude d'un lot appelé \"Contrôle positif\" de 10 animaux qui est traité par une molécule active, variable selon le protocole choisi, dans les mêmes conditions que les lots traités par le produit à tester, afin de valider l'essai.\n(§5) L'activité antitumorale est évaluée en considérant l'augmentation du temps de survie des animaux traités par rapport à celui des animaux du lot \"Contrôle négatif\" selon la formule : • Jour médian de survie des animaux traités à une T/C = dose donnée de produit x 100 • Jour médian de survie des animaux \"Contrôle négatif\"\n(§6) Un composé est considéré comme étant actif lorsque la valeur du rapport T/C est égale ou supérieure à 125 % selon le protocole retenu. Il est toxique lorsque cette valeur est égale ou inférieure à 85 %. Le produit est également considéré comme toxique lorsque la variation pondérale, exprimée en grammes et calculée par la formule : Poids moyen du lot mesuré au jour 5 - poids moyen du même lot au jour 1, est égale ou inférieure à -4g . a) Test de la leucémie P 388 (GERAN et al., Cancer Chemother, 1972, 2, 07-57).\nd) Test du réticulosarcome M5-M5076.\nLes essais sont effectués avec des souris hybrides BDF1 inoculées avec 10^6 cellules de la lignée M5-M5076. Le composé à tester est administré 5 fois successivement de façon séquentielle (Jl, 5, 9, 13, 17). Le contrôle positif du test est le cyclophosphamide administré dans les mêmes conditions. Le nombre d'animaux survivants est évalué au jour J 75. Un composé est considéré comme actif lorsque le rapport T/C est supérieur ou égal à 125 %."}, "leucémie L 1210": {"test_system": "leucémie L 1210", "assay": "L 1210 leukemia test in vivo", "parameters": "species or system souris hybrides CDF1", "details": "for Survivants: at day J 60", "excerpt": "as §1, §2, §3, §4, §5, §6\nb) Test de la leucémie L 1210 (GERAN et al., Cancer Chemother, 1972, 2, 07-57).\nLes essais sont effectués avec des souris hybrides CDF1 inoculées avec 10^5 cellules leucémiques de la lignée L 1210. Le composé à tester est administré pendant 5 jours (J1-J5). Le contrôle positif du test est le 5-fluorouracile administré dans les mêmes conditions. Le nombre d'animaux survivants est évalué au jour J 60. Un composé est considéré comme étant actif lorsque le rapport T/C est supérieur ou égal à 125 %."}, "leucémie P 388": {"test_system": "leucémie P 388", "type": "in vivo, souris hybrides CDF1", "excerpt": "as §1, §2, §3, §4, §5, §6\nLes essais sont effectués avec des souris hybrides CDF1 inoculées par voie intrapéritonéale avec […] leucémiques de la lignée P 388. Le composé à tester est administré pendant 5 jours (Jl-J5). Le contrôle positif du test est le 5-fluorouracile qui est administré dans les mêmes conditions.\n[…] Un composé est considéré comme étant actif lorsque le rapport T/C est supérieur à 127 %."}, "[1]": {"details": "100 mg/kg i.p. J1, 5, 9, 13, 17"}, "[2]": {"details": "150 mg/kg i.p. J1, 5, 9, 13, 17"}}, "note": "Like-named read-outs stand apart in the source and are kept apart here.", "data": [{"smiles": "CCN(CC)CCCNc1ncc(C)c2c1c1cnccc1n2C", "note": "[Dérivé N° 4, [(diéthylamino-3 propyl-1)amino]-1 diméthyl-4,5 5-H pyrido[3',4':4,5]pyrrolo[3,2-c]pyridine]", "values": [{"measurement": "Jour médian de survie", "setting": "réticulosarcome M5-M5076; 10 mg/kg i.p. J1, 5, 9, 13, 17", "result": "28,3"}, {"measurement": "T/C %", "setting": "réticulosarcome M5-M5076; 10 mg/kg i.p. J1, 5, 9, 13, 17", "result": 108, "unit": "%"}, {"measurement": "Survivants", "setting": "réticulosarcome M5-M5076; 10 mg/kg i.p. J1, 5, 9, 13, 17", "result": 0}, {"measurement": "Jour médian de survie", "setting": "réticulosarcome M5-M5076; 25 mg/kg i.p. J1, 5, 9, 13, 17", "result": "41,75"}, {"measurement": "T/C %", "setting": "réticulosarcome M5-M5076; 25 mg/kg i.p. J1, 5, 9, 13, 17", "result": 159, "unit": "%"}, {"measurement": "Survivants", "setting": "réticulosarcome M5-M5076; 25 mg/kg i.p. J1, 5, 9, 13, 17", "result": 1}, {"measurement": "Jour médian de survie", "setting": "réticulosarcome M5-M5076; 50 mg/kg i.p. J1, 5, 9, 13, 17", "result": "53,0"}, {"measurement": "T/C %", "setting": "réticulosarcome M5-M5076; 50 mg/kg i.p. J1, 5, 9, 13, 17", "result": 202, "unit": "%"}, {"measurement": "Survivants", "setting": "réticulosarcome M5-M5076; 50 mg/kg i.p. J1, 5, 9, 13, 17", "result": 4}, {"measurement": "Jour médian de survie", "setting": "réticulosarcome M5-M5076; [1]", "result": "48,0"}, {"measurement": "T/C %", "setting": "réticulosarcome M5-M5076; [1]", "result": 182, "unit": "%"}, {"measurement": "Survivants", "setting": "réticulosarcome M5-M5076; [1]", "result": 2}, {"measurement": "Jour médian de survie", "setting": "réticulosarcome M5-M5076; [2]", "result": "14,0"}, {"measurement": "T/C %", "setting": "réticulosarcome M5-M5076; [2]", "result": 53, "unit": "%"}, {"measurement": "Survivants", "setting": "réticulosarcome M5-M5076; [2]", "result": 0}, {"measurement": "Jour médian de survie", "setting": "leucémie L 1210; 5 mg/kg i.p. J1-J5", "result": "12,75"}, {"measurement": "T/C %", "setting": "leucémie L 1210; 5 mg/kg i.p. J1-J5", "result": 138, "unit": "%"}, {"measurement": "Survivants", "setting": "leucémie L 1210; 5 mg/kg i.p. J1-J5", "result": 0}, {"measurement": "Jour médian de survie", "setting": "leucémie L 1210; 15 mg/kg i.p. J1-J5", "result": "13,75"}, {"measurement": "T/C %", "setting": "leucémie L 1210; 15 mg/kg i.p. J1-J5", "result": 149, "unit": "%"}, {"measurement": "Survivants", "setting": "leucémie L 1210; 15 mg/kg i.p. J1-J5", "result": 0}, {"measurement": "Jour médian de survie", "setting": "leucémie L 1210; 30 mg/kg i.p. J1-J5", "result": "17,25"}, {"measurement": "T/C %", "setting": "leucémie L 1210; 30 mg/kg i.p. J1-J5", "result": 188, "unit": "%"}, {"measurement": "Survivants", "setting": "leucémie L 1210; 30 mg/kg i.p. J1-J5", "result": 0}, {"measurement": "Jour médian de survie", "setting": "leucémie L 1210; 60 mg/kg i.p. J1-J5", "result": "18,0"}, {"measurement": "T/C %", "setting": "leucémie L 1210; 60 mg/kg i.p. J1-J5", "result": 196, "unit": "%"}, {"measurement": "Survivants", "setting": "leucémie L 1210; 60 mg/kg i.p. J1-J5", "result": 1}, {"measurement": "Jour médian de survie", "setting": "leucémie L 1210; 80 mg/kg i.p. J1-J5", "result": "9,1"}, {"measurement": "T/C %", "setting": "leucémie L 1210; 80 mg/kg i.p. J1-J5", "result": 99, "unit": "%"}, {"measurement": "Survivants", "setting": "leucémie L 1210; 80 mg/kg i.p. J1-J5", "result": 0}, {"measurement": "Jour médian de survie", "setting": "leucémie L 1210; 2,5 mg/kg i.p. J1-J5", "result": "10,9"}, {"measurement": "T/C %", "setting": "leucémie L 1210; 2,5 mg/kg i.p. J1-J5", "result": 118, "unit": "%"}, {"measurement": "Survivants", "setting": "leucémie L 1210; 2,5 mg/kg i.p. J1-J5", "result": 0}, {"measurement": "Jour médian de survie", "setting": "leucémie P 388; 5 mg/kg i.p. J1-J5", "result": "14,25"}, {"measurement": "T/C %", "setting": "leucémie P 388; 5 mg/kg i.p. J1-J5", "result": 130, "unit": "%"}, {"measurement": "Survivants", "setting": "leucémie P 388; 5 mg/kg i.p. J1-J5, at day J 40", "result": "0/10"}, {"measurement": "Jour médian de survie", "setting": "leucémie P 388; 10 mg/kg i.p. J1-J5", "result": "16,13"}, {"measurement": "T/C %", "setting": "leucémie P 388; 10 mg/kg i.p. J1-J5", "result": 147, "unit": "%"}, {"measurement": "Survivants", "setting": "leucémie P 388; 10 mg/kg i.p. J1-J5, at day J 40", "result": "0/10"}, {"measurement": "Jour médian de survie", "setting": "leucémie P 388; 20 mg/kg i.p. J1-J5", "result": "18,0"}, {"measurement": "T/C %", "setting": "leucémie P 388; 20 mg/kg i.p. J1-J5", "result": 164, "unit": "%"}, {"measurement": "Survivants", "setting": "leucémie P 388; 20 mg/kg i.p. J1-J5, at day J 40", "result": "0/10"}, {"measurement": "Jour médian de survie", "setting": "leucémie P 388; 40 mg/kg i.p. J1-J5", "result": "18,75"}, {"measurement": "T/C %", "setting": "leucémie P 388; 40 mg/kg i.p. J1-J5", "result": 172, "unit": "%"}, {"measurement": "Survivants", "setting": "leucémie P 388; 40 mg/kg i.p. J1-J5, at day J 40", "result": "0/10"}, {"measurement": "Jour médian de survie", "setting": "leucémie P 388; 50 mg/kg i.p. J1-J5", "result": 25}, {"measurement": "T/C %", "setting": "leucémie P 388; 50 mg/kg i.p. J1-J5", "result": 207, "unit": "%"}, {"measurement": "Survivants", "setting": "leucémie P 388; 50 mg/kg i.p. J1-J5, à J 42", "result": "3/10 à J 42"}, {"measurement": "Jour médian de survie", "setting": "leucémie P 388; 80 mg/kg i.p. J1-J5", "result": "8,9"}, {"measurement": "T/C %", "setting": "leucémie P 388; 80 mg/kg i.p. J1-J5", "result": 81, "unit": "%"}, {"measurement": "Survivants", "setting": "leucémie P 388; 80 mg/kg i.p. J1-J5, at day J 40", "result": "0/10"}, {"measurement": "Jour médian de survie", "setting": "leucémie P 388; 1,25 mg/kg i.p. J1-J5", "result": "12,6"}, {"measurement": "T/C %", "setting": "leucémie P 388; 1,25 mg/kg i.p. J1-J5", "result": 115, "unit": "%"}, {"measurement": "Survivants", "setting": "leucémie P 388; 1,25 mg/kg i.p. J1-J5, at day J 40", "result": "0/10"}, {"measurement": "Jour médian de survie", "setting": "leucémie P 388; 2,5 mg/kg i.p. J1-J5", "result": "14,25"}, {"measurement": "T/C %", "setting": "leucémie P 388; 2,5 mg/kg i.p. J1-J5", "result": 130, "unit": "%"}, {"measurement": "Survivants", "setting": "leucémie P 388; 2,5 mg/kg i.p. J1-J5, at day J 40", "result": "0/10"}]}]}
